Measurements from ChEMBL document CHEMBL5375946, “Discovery of KB-0742, a Potent, Selective, Orally Bioavailable Small Molecule Inhibitor of CDK9 for MYC-Dependent Cancers” (J Med Chem, 2023).

Experiments:
in vitro [1] = details: human, plasma
in vitro [2] = details: dog, plasma
in vitro [3] = details: dog, liver microsomes
in vitro [4] = details: rat, plasma
in vitro [5] = details: mouse, plasma

- fraction unbound at 10 µM (in vitro [1]): 0.62
- fraction unbound at 10 µM (in vitro [2]): 0.28
- remaining at 3 h (in vitro [3]): 68.8%
- fraction unbound at 10 µM (in vitro [4]): 0.59
- fraction unbound at 10 µM (in vitro [5]): 0.52
SMILES: CCC(CC)c1cc(N[C@H]2CC[C@H](N)C2)n2nccc2n1 [ISTISOCICLIB]
